The target in this experiment is T1, hKv7.2/7.3 (Homo sapiens, UniProt O43525+O43526).
T1 construct: host or cells: HEK cells, tetracycline-inducible expression
Description: Kv7.2/7.3 Activation Assay, QPatch planar patch-clamp single concentration screen. It is filed as cell-based. The conditions noted are these: increase in current over baseline, Kv7.2/Kv7.3 co-expressing HEK cells, compound concentration 3 μM, steady-state current at end of 2 s pulse to −30 mV. How it is done: The ability of compounds to potentiate K-currents in Kv7.2/7.3 containing HEK cells was assessed using planar patch-clamp on the QPatch automated screening platform.
Cell Line: The hKv7.2/7.3 cell line was obtained from Chantest (Cleveland, OH 44128) cat. #CT6147. These HEK cells will express the Kv7.2/7.3 ion channels when induced.
Cell Culture: Cells were maintained in a media containing DMEM/F12; 50/50 (GIBCO cat. #11330), 10% Fetal Bovine Serum (FBS) (GIBCO cat. #26140), 100 units/mL Penicillin-Streptomycin (GIBCO cat. #15140), 0.005 mg/mL Blasticidin (INVIVOGEN cat. #ant-bl-1), 0.5 mg/mL Geneticin (GIBCO cat. #10131), 0.1 mg/mL Zeocin (GIBCO cat. #R25001). Cells used in the electrophysiology assay were maintained in a media without Blasticidin, Geneticin and Zeocin for 2 days and channel expression was induced by adding tetracycline (BIOLINE cat. #BIO-87030) at a final concentration of […]. Cells were grown in T-175 flask to ˜75% confluency. Currents were recorded 24 hours after channel induction.
Compound Plates: Test compounds were prepared by performing serial dilutions on a Biomek NX^P (BECKMAN COULTER). Final dilutions were made in external recording solution with a final DMSO concentration of 0.1% DMSO. For single concentration screens each plate had 10 μM retigabine as a positive control and 0.1% DMSO as a negative control.
Electrophysiology: On the day of the experiment cells were washed with Hank's Balanced Salt Solution (HBBS) (GIBCO cat. #14175) and harvested with Tryple (GIBCO cat. #12604). Cells were then centrifuged at 2000 rpm for 5 minutes and resuspended in CHO—S-SFM (GIBCO cat. #12052) at […]. Cells were stirred for 30 minutes before experiments were started. External recording solution contained (in mM): NaCl (145), KCl (4), CaCl2 (2), MgCl2 (1), HEPES (10) and Glucose (10); pH was adjusted to 7.4 with NaOH and the osmolarity was adjusted to 300-305 mOsM with sucrose if necessary. Internal solution contained (in mM): KCl (125), KF (10), EGTA (5), Na2ATP (5), MgCl2 (3.2), HEPES (5); pH was adjusted to 7.2 with KOH and the osmolarity was adjusted to 298-302 mOsM with sucrose.
Potassium channel activity was measured on the QPatch HTX (Sophion Bioscience) using QPlates with 48-wells/plate. Each cell was taken as an independent experiment and only one compound was tested per well. Potassium channel activity was elicited by holding at −80 mV and stepping to −30 mV for 2 s followed by a 100 ms pulse to −120 mV.
Single concentration screen: Baseline conditions were obtained by recording 5 sweeps in the external solution only, this was repeated for three applications of the external solution. The effect of test compounds on elicited current was then assessed by recording 5 sweeps in the presence of a 3 μM compound solution. The steady-state current at the end of the 2 s pulse to −30 mV was measured to determine the fold increase from baseline.
For orientation: The patch-clamp technique gives a direct electrical read-out from membranes.
Turning to `CC(C)(F)CC(=O)Nc1nn2ccc(C(F)(F)F)cc2c1C1CCC1` [Example 64, N-(3-cyclobutyl-5-(trifluoromethyl)pyrazolo [1,5-a]pyridin-2-yl)-3-fluoro-3-methylbutanamide], the “QPatch Kv7.2/7.3 Activity” value is listed as “+++ (>6-fold (+++))”.

In the case of `Cc1ccccc1-c1c(NC(=O)CC(C)(C)O)nn2ccc(C(F)(F)F)cc12` [Example 51, 3-hydroxy-3-methyl-N-(3-(o-tolyl)-5-(trifluoromethyl)pyrazolo [1,5-a]pyridin-2-yl)butanamide], the “QPatch Kv7.2/7.3 Activity” value is on record as “+/− (1.2-1.99-fold (+/−))”.

Regarding `C[C@@](O)(CC(=O)Nc1nn2ccc(C(F)(F)F)cc2c1C1CCC1)c1ccccc1` [Example 34, (R)-N-(3-cyclobutyl-5-(trifluoromethyl)pyrazolo [1,5-a]pyridin-2-yl)-3-hydroxy-3-phenylbutanamide], the “QPatch Kv7.2/7.3 Activity” value is “− (<1.2-fold (−))”.

For `O=C(CC1(O)CCCC1)Nc1nn2ccc(Cl)cc2c1C1CCC1` [Example 20, N-(5-chloro-3-cyclobutylpyrazolo[1,5-a]pyridin-2-yl)-2-(1-hydroxycyclopentyl) acetamide], the “QPatch Kv7.2/7.3 Activity” value is given as “+ (2.0-3.99 (+))”.

As for `CC(C)(C)CC(=O)Nc1nn2ccc(C(C)(C)O)cc2c1-c1ccc(F)cc1` [Example 79, N-(3-(4-fluorophenyl)-5-(2-hydroxypropan-2-yl)pyrazolo[1,5-a]pyridin-2-yl)-3,3-dimethylbutanamide], the “QPatch Kv7.2/7.3 Activity” value was “++ (4.0-5.99 (++))”.

As to `O=C(CC1(O)CCCC1)Nc1nn2ccc(C(F)(F)F)cc2c1C1CCC1` [Example 21, N-(3-cyclobutyl-5-(trifluoromethyl)pyrazolo [1,5-a]pyridin-2-yl)-2-(1-hydroxycyclopentyl) acetamide], the “QPatch Kv7.2/7.3 Activity” value is “+ (2.0-3.99 (+))”.

With `CC(O)(CC(=O)Nc1nn2ccc(C(F)(F)F)cc2c1C1CCC1)c1ccccc1` (centres unmarked) [Example 27, N-(3-cyclobutyl-5-(trifluoromethyl)pyrazolo [1,5-a]pyridin-2-yl)-3-hydroxy-3-phenylbutanamide], the “QPatch Kv7.2/7.3 Activity” value is “+ (2.0-3.99 (+))”.

As for `CC(C)(O)CC(=O)Nc1nn2ccc(C(F)(F)F)cc2c1-c1ccc(C(F)(F)F)cc1` [Example 50, 3-hydroxy-3-methyl-N-(5-(trifluoromethyl)-3-(4-(trifluoromethyl)phenyl)pyrazolo [1,5-a]pyridin-2-yl)butanamide], the “QPatch Kv7.2/7.3 Activity” value is “+ (2.0-3.99 (+))”.

`CC(C)(O)CC(=O)Nc1nn2cccc(F)c2c1C1CCC1` [Example 61, N-(3-cyclobutyl-4-fluoropyrazolo[1,5-a]pyridin-2-yl)-3-hydroxy-3-methylbutanamide]: the “QPatch Kv7.2/7.3 Activity” value is recorded as “+/− (1.2-1.99-fold (+/−))”.

With `CC(C)(O)CC(=O)Nc1nn2ccc(C(F)(F)F)cc2c1-c1cc(F)cc(F)c1` [Example 56, N-(3-(3,5-difluorophenyl)-5-(trifluoromethyl)pyrazolo [1,5-a]pyridin-2-yl)-3-hydroxy-3-methylbutanamide], the “QPatch Kv7.2/7.3 Activity” value is “+ (2.0-3.99 (+))”.

Turning to `CC(C)(O)CC(=O)Nc1nn2ccc(C(F)(F)F)cc2c1-c1ccc(Cl)cc1` [Example 17, N-(3-(4-chlorophenyl)-5-(trifluoromethyl)pyrazolo [1,5-a]pyridin-2-yl)-3-hydroxy-3-methylbutanamide], the “QPatch Kv7.2/7.3 Activity” value is “+ (2.0-3.99 (+))”.

Regarding `CC(C)(C)CC(=O)NNc1nn2ccc(C(F)(F)F)cc2c1-c1ccc(F)cc1` [Example 84, N′-(3-(4-fluorophenyl)-5-(trifluoromethyl)pyrazolo [1,5-a]pyridin-2-yl)-3,3-dimethylbutanehydrazide], the “QPatch Kv7.2/7.3 Activity” value is on record as “+/− (1.2-1.99-fold (+/−))”.

As to `C[C@](O)(CC(=O)Nc1nn2ccc(C(F)(F)F)cc2c1C1CCC1)c1ccccn1` [Example 41, (S)-N-(3-cyclobutyl-5-(trifluoromethyl)pyrazolo [1,5-a]pyridin-2-yl)-3-hydroxy-3-(pyridin-2-yl)butanamide], the “QPatch Kv7.2/7.3 Activity” value was “++ (4.0-5.99 (++))”.

For the compound `CCC(O)(CC)CC(=O)Nc1nn2ccc(C(F)(F)F)cc2c1-c1ccc(F)cc1` [Example 77, 3-ethyl-N-(3-(4-fluorophenyl)-5-(trifluoromethyl)pyrazolo [1,5-a]pyridin-2-yl)-3-hydroxypentanamide], the “QPatch Kv7.2/7.3 Activity” value is “+ (2.0-3.99 (+))”.

Turning to `CC(C)(C)CC(=O)Nc1nn2c(C(F)F)cccc2c1C1CCC1` [Example 65, N-(3-cyclobutyl-7-(difluoromethyl)pyrazolo [1,5-a]pyridin-2-yl)-3,3-dimethylbutanamide], the “QPatch Kv7.2/7.3 Activity” value was “++ (4.0-5.99 (++))”.

As to `CC(C)(O)CC(=O)Nc1nn2ccc(C(F)(F)F)cc2c1-c1ccc(OC(F)(F)F)cc1` [Example 49, 3-hydroxy-3-methyl-N-(3-(4-(trifluoromethoxy)phenyl)-5-(trifluoromethyl)pyrazolo [1,5-a]pyridin-2-yl)butanamide], the “QPatch Kv7.2/7.3 Activity” value was “+ (2.0-3.99 (+))”.

With `O=C(CC(C(F)(F)F)C(F)(F)F)Nc1nn2ccc(C(F)(F)F)cc2c1C1CCC1` [Example 5, N-(3-cyclobutyl-5-(trifluoromethyl)pyrazolo [1,5-a]pyridin-2-yl)-4,4,4-trifluoro-3-(trifluoromethyl) butanamide], the “QPatch Kv7.2/7.3 Activity” value is given as “+/− (1.2-1.99-fold (+/−))”.

In the case of `CC(C)(O)CC(=O)Nc1nn2ccc(C(F)(F)F)cc2c1-c1ccc(Cl)s1` [Example 44, N-(3-(5-chlorothiophen-2-yl)-5-(trifluoromethyl)pyrazolo [1,5-a]pyridin-2-yl)-3-hydroxy-3-methylbutanamide], the “QPatch Kv7.2/7.3 Activity” value was “+ (2.0-3.99 (+))”.

For the compound `CC(C)(C)CC(=O)Nc1nn2ccc(C(F)(F)F)cc2c1C1CCC1` [Example 2, N-(3-cyclobutyl-5-(trifluoromethyl)pyrazolo [1,5-a]pyridin-2-yl)-3,3-dimethylbutanamide], the “QPatch Kv7.2/7.3 Activity” value is recorded as “+ (2.0-3.99 (+))”.

In the case of `CC(C)(O)CC(=O)Nc1nn2ccc(C(F)(F)F)cc2c1-c1ccccc1` [Example 13, 3-hydroxy-3-methyl-N-(3-phenyl-5-(trifluoromethyl)pyrazolo [1,5-a]pyridin-2-yl)butanamide], the “QPatch Kv7.2/7.3 Activity” value was “+ (2.0-3.99 (+))”.

Consider `C[C@@](O)(CC(=O)Nc1nn2ccc(C(F)(F)F)cc2c1C1CCC1)C1CC1` [Example 87, (R)-N-(3-cyclobutyl-5-(trifluoromethyl)pyrazolo[1,5-a]pyridin-2-yl)-3-cyclopropyl-3-hydroxybutanamide], for which the “QPatch Kv7.2/7.3 Activity” value is “+ (2.0-3.99 (+))”.

For the compound `Cc1ccc(-c2c(NC(=O)CC(C)(C)O)nn3ccc(C(F)(F)F)cc23)cc1` [Example 18, 3-hydroxy-3-methyl-N-(3-(p-tolyl)-5-(trifluoromethyl)pyrazolo [1,5-a]pyridin-2-yl)butanamide], the “QPatch Kv7.2/7.3 Activity” value is recorded as “+ (2.0-3.99 (+))”.

In the case of `C[C@@](O)(CC(=O)Nc1nn2cccc(F)c2c1C1CCC1)c1ccccn1` [Example 73, (R)-N-(3-cyclobutyl-4-fluoropyrazolo [1,5-a]pyridin-2-yl)-3-hydroxy-3-(pyridin-2-yl)butanamide], the “QPatch Kv7.2/7.3 Activity” value is “− (<1.2-fold (−))”.

`CC(C)(O)CC(=O)Nc1nn2ccc(Cl)cc2c1C1CCC1` [Example 53, N-(5-chloro-3-cyclobutylpyrazolo[1,5-a]pyridin-2-yl)-3-hydroxy-3-methylbutanamide]: the “QPatch Kv7.2/7.3 Activity” value was “+ (2.0-3.99 (+))”.

`C[C@](O)(CC(=O)Nc1nn2c(C(F)(F)F)cccc2c1-c1ccc(F)cc1)c1ccccc1` [Example 78, (S)-N-(3-(4-fluorophenyl)-7-(trifluoromethyl)pyrazolo [1,5-a]pyridin-2-yl)-3-hydroxy-3-phenylbutanamide]: the “QPatch Kv7.2/7.3 Activity” value is recorded as “+ (2.0-3.99 (+))”.

On to `CC(C)(O)CC(=O)Nc1nn2c(C(F)F)cccc2c1C1CCC1` [Example 72, N-(3-cyclobutyl-7-(difluoromethyl)pyrazolo [1,5-a]pyridin-2-yl)-3-hydroxy-3-methylbutanamide], for which the “QPatch Kv7.2/7.3 Activity” value is “+/− (1.2-1.99-fold (+/−))”.

(Values after patent US20250066351A1, “PYRAZOLO[1,5-A]PYRIDIN-2,3-YL AMIDES AS KV7 CHANNEL ACTIVATORS” (Biohaven Therapeutics Ltd., priority 2022, published 2025).)
